Assay results from EPA's ToxRefDB 2.

How the values were obtained:
mouse [1] = settings: Subchronic oral toxicity in rodents, b6c3f1, Water, dose end: 30 day, group: systemic
mouse [2] = settings: Developmental neurotoxicity study; cd1; Injection; Subcutaneous; dose end: 35 PND; group: cannot be grouped; developmental / developmental landmark / eye opening / eye opening + systemic / in life observation / clinical signs / [other] + systemic / …
mouse [3] = settings: Prenatal developmental toxicity study, cd1, Oral, Gavage/Intubation, dose end: 16 GD
rat [4] = settings: Developmental neurotoxicity study; other; Oral; Water; dose end: 20 PND; group: cannot be grouped; systemic / in life observation / body weight / body weight gain + systemic / in life observation / food consumption / food consumption + …
rat [5] = settings: Combined chronic toxicity/carcinogenicity, wistar, Oral, Feed, dose end: 104 week, group: systemic
mouse [6] = settings: Carcinogenicity, other, Oral, Feed, dose end: 92 week, group: systemic
rat [7] = settings: Combined chronic toxicity/carcinogenicity; fischer; Oral; Water; dose end: 21 month; group: systemic; systemic / pathology microscopic / heart / thrombus + systemic / pathology microscopic / liver / degeneration + systemic / pathology …
rat [8] = settings: Subchronic oral toxicity in rodents, fischer, Water, dose end: 13 week, group: systemic
rat [9] = settings: Subchronic oral toxicity in rodents, fischer, Water, dose end: 13 week, group: systemic; remark: listed apart in the source
mouse [10] = settings: Carcinogenicity, b6c3f1, Oral, Feed, dose end: 58 week, group: systemic
rat [11] = settings: Carcinogenicity, fischer, Oral, Feed, dose end: 78 week, group: systemic
rat [12] = settings: Carcinogenicity; other; Oral; Feed; dose end: 82 week; group: systemic; systemic / in life observation / clinical signs / fur (altered appearance) + systemic / in life observation / clinical signs / hunched …
rat [13] = settings: Subchronic oral toxicity in rodents, sprague dawley, Feed, dose end: 90 day
mouse [14] = settings: Combined chronic toxicity/carcinogenicity, other, Oral, Feed, dose end: 24 month, group: systemic
rat [15] = settings: Prenatal developmental toxicity study, wistar, Oral, Gavage/Intubation, dose end: 16 GD
rat [16] = settings: Combined chronic toxicity/carcinogenicity, sprague dawley, Oral, Feed, dose end: 24 month, group: systemic
dog [17] = settings: Chronic toxicity, beagle, Oral, Feed, dose end: 54 week, group: systemic
rat [18] = settings: Combined chronic toxicity/carcinogenicity; sprague dawley; Oral; Feed; dose end: 104 week; group: systemic; systemic / in life observation / body weight / body weight gain + systemic / pathology microscopic / blood vessel / aneurysm + systemic / …
mouse [19] = settings: Carcinogenicity, other, Oral, Feed, dose end: 24 month, group: systemic
mouse [20] = settings: Subchronic oral toxicity in rodents, cd1, Feed, dose end: 13 week, group: systemic, systemic / hematology / hemoglobin (hgb) / hemoglobin (hgb) + systemic / hematology / mean corpuscular hemoglobin concentration (mchc) / …
rat [21] = settings: Combined chronic toxicity/carcinogenicity; sprague dawley; Oral; Feed; dose end: 24 month; group: systemic; systemic / clinical chemistry / sodium / sodium
rat [22] = settings: Prenatal developmental toxicity study, sprague dawley, Oral, Gavage/Intubation, dose end: 16 GD
rabbit = settings: Prenatal developmental toxicity study, new zealand white, Oral, Gavage/Intubation, dose end: 19 GD, group: maternal
dog [23] = settings: Chronic toxicity; beagle; Oral; Feed; dose end: 12 month; group: systemic; systemic / clinical chemistry / sodium / sodium + systemic / in life observation / body weight / body weight + systemic / in life …
[24] = systemic / clinical chemistry / triglycerides / triglycerides
[25] = systemic / organ weight / kidney / absolute + systemic / organ weight / kidney / relative to body weight + systemic / organ weight / liver…
[26] = group: developmental, developmental / developmental malformation / bone / supernumerary + developmental / developmental malformation / general / hemorrhage + …
[27] = group: maternal, reproductive / reproductive performance / resorptions / resorptions + systemic / in life observation / clinical signs / abnormal movements…
[28] = systemic / pathology microscopic / liver / hypertrophy + systemic / pathology microscopic / thyroid gland / [other]
[29] = systemic / pathology microscopic / liver / hypertrophy + systemic / pathology microscopic / thyroid gland / [other] + systemic / in life …
[30] = systemic / pathology microscopic / liver / depletion glycogen
[31] = systemic / pathology microscopic / liver / depletion glycogen + systemic / pathology microscopic / lung / adenocarcinoma + systemic / …
[32] = systemic / in life observation / body weight / body weight gain + systemic / organ weight / kidney / relative to body weight + systemic / …
[33] = systemic / organ weight / liver / relative to body weight
[34] = systemic / clinical chemistry / creatinine / creatinine + systemic / clinical chemistry / thyroxine (t4) / thyroxine (t4), total + systemic…
[35] = systemic / in life observation / body weight / body weight + systemic / pathology microscopic / kidney / nephropathy + systemic / pathology …
[36] = systemic / pathology microscopic / liver / hyperplasia
[37] = systemic / pathology microscopic / liver / hyperplasia + systemic / pathology microscopic / liver / adenoma + systemic / pathology …
[38] = systemic / pathology microscopic / liver / neoplastic nodule
[39] = group: cholinesterase, cholinesterase / cholinesterase / cholinesterase / plasma cholinesterase (che)
[40] = group: systemic, systemic / hematology / mean corpuscular hemoglobin concentration (mchc) / mean corpuscular hemoglobin concentration (mchc) + systemic / …
[41] = group: systemic, systemic / pathology microscopic / kidney / pigmentation
[42] = systemic / in life observation / mortality / mortality
[43] = systemic / in life observation / mortality / mortality + systemic / in life observation / body weight / body weight gain
[44] = group: developmental, developmental / developmental malformation / bone / fragmented + systemic / in life observation / clinical signs / reduced body size
[45] = group: maternal, systemic / in life observation / body weight / body weight gain + systemic / in life observation / clinical signs / convulsions + systemic…
[46] = systemic / in life observation / body weight / body weight gain + systemic / pathology gross / kidney / enlarged + systemic / pathology …
[47] = systemic / in life observation / clinical signs / [other] + systemic / in life observation / body weight / body weight + systemic / in life …
[48] = systemic / in life observation / clinical signs / [other] + systemic / in life observation / body weight / body weight gain + systemic / in …
[49] = systemic / pathology gross / urinary bladder / thickened
[50] = group: developmental, developmental / developmental malformation / bone / incomplete ossification + systemic / in life observation / body weight / fetal weight + …
[51] = group: maternal, systemic / in life observation / body weight / body weight + systemic / in life observation / body weight / body weight gain + systemic / in…
[52] = systemic / organ weight / liver / relative to body weight + reproductive / reproductive performance / aborted / aborted + reproductive / …

SMILES: O=[As]([O-])([O-])[O-].[Na+].[Na+].[Na+] [Trisodium arsenate]
- LEL (mouse [1]; [24]): 0.00625 mg/kg/day
- NEL (mouse [1]; [24]): < 0.00625 mg/kg/day
- LOAEL (mouse [1]; [25]): 0.625 mg/kg/day
- NOAEL (mouse [1]; [25]): 0.00625 mg/kg/day

SMILES: CN1CCC[C@H]1c1cccnc1 [Nicotine]
- LEL (mouse [2]): 0.5 mg/kg/day
- LOAEL (mouse [2]): > 0.5 mg/kg/day
- NEL (mouse [2]): < 0.5 mg/kg/day
- NOAEL (mouse [2]): ≥ 0.5 mg/kg/day
- LEL (mouse [3]; group: developmental, developmental / developmental malformation / bone / supernumerary): 12 mg/kg/day
- LOAEL (mouse [3]; [26]): > 20 mg/kg/day
- NEL (mouse [3]; [26]): 4 mg/kg/day
- NOAEL (mouse [3]; [26]): ≥ 20 mg/kg/day
- LEL (mouse [3]; [27]): 12 mg/kg/day
- LOAEL (mouse [3]; [27]): > 20 mg/kg/day
- NEL (mouse [3]; [27]): 4 mg/kg/day
- NOAEL (mouse [3]; [27]): ≥ 20 mg/kg/day
- LEL (rat [4]): 2.9 mg/kg/day
- LOAEL (rat [4]): > 4.4 mg/kg/day
- NEL (rat [4]): < 2.9 mg/kg/day
- NOAEL (rat [4]): ≥ 4.4 mg/kg/day

SMILES: CC1(C)[C@H](C(=O)OCc2cccc(Oc3ccccc3)c2)[C@@H]1C=C(Cl)Cl [1RS cis-Permethrin]
- LEL (rat [5]; [28]): 50 mg/kg/day
- LOAEL (rat [5]; [28]): 50 mg/kg/day
- NEL (rat [5]; [29]): 10 mg/kg/day
- NOAEL (rat [5]; [29]): 10 mg/kg/day
- LEL (mouse [6]; [30]): 10 mg/kg/day
- NEL (mouse [6]; [30]): < 10 mg/kg/day
- LOAEL (mouse [6]; [31]): > 250 mg/kg/day
- NOAEL (mouse [6]; [31]): ≥ 250 mg/kg/day

SMILES: COc1cc(-c2ccc(N)c(OC)c2)ccc1N.Cl.Cl [3,3'-Dimethoxybenzidine dihydrochloride]
- LEL (rat [7]): 6 mg/kg/day
- LOAEL (rat [7]): 6 mg/kg/day
- NEL (rat [7]): < 6 mg/kg/day
- NOAEL (rat [7]): < 6 mg/kg/day
- LOAEL (rat [8]; [32]): > 120 mg/kg/day
- NOAEL (rat [8]; [32]): ≥ 120 mg/kg/day
- LEL (rat [8]; [33]): 13 mg/kg/day
- NEL (rat [8]; [33]): < 13 mg/kg/day
- LEL (rat [9]; [34]): 11 mg/kg/day
- NEL (rat [9]; [34]): < 11 mg/kg/day
- LOAEL (rat [9]; [35]): 109 mg/kg/day
- NOAEL (rat [9]; [35]): 56 mg/kg/day

SMILES: O=Nc1ccc(Nc2ccccc2)cc1 [4-Nitrosodiphenylamine]
- LOAEL (mouse [10]; [36]): 638 mg/kg/day
- NOAEL (mouse [10]; [36]): < 638 mg/kg/day
- LEL (mouse [10]; [37]): 638 mg/kg/day
- NEL (mouse [10]; [37]): < 638 mg/kg/day
- LOAEL (rat [11]; systemic / in life observation / body weight / body weight): 250 mg/kg/day
- NOAEL (rat [11]; systemic / in life observation / body weight / body weight + systemic / pathology microscopic / liver / neoplastic nodule + systemic / …): 125 mg/kg/day
- LEL (rat [11]; [38]): 125 mg/kg/day
- NEL (rat [11]; [38]): < 125 mg/kg/day

SMILES: O=S1OCC2C(CO1)C1(Cl)C(Cl)=C(Cl)C2(Cl)C1(Cl)Cl (configuration not stated) [Endosulfan]
- LEL (rat [12]): 11.2 mg/kg/day
- LOAEL (rat [12]): > 22.2 mg/kg/day
- NEL (rat [12]): < 11.2 mg/kg/day
- NOAEL (rat [12]): ≥ 22.2 mg/kg/day
- LEL (rat [13]; [39]): 18 mg/kg/day
- LOAEL (rat [13]; [39]): > 18 mg/kg/day
- NEL (rat [13]; [39]): 3 mg/kg/day
- NOAEL (rat [13]; [39]): ≥ 18 mg/kg/day
- LOAEL (rat [13]; [40]): 1.5 mg/kg/day
- NOAEL (rat [13]; [40]): 0.5 mg/kg/day
- LEL (rat [13]; [41]): 0.5 mg/kg/day
- NEL (rat [13]; [41]): < 0.5 mg/kg/day
- NEL (mouse [14]; [42]): 0.9 mg/kg/day
- LEL (mouse [14]; [43]): 2.7 mg/kg/day
- LOAEL (mouse [14]; [43]): > 2.7 mg/kg/day
- NOAEL (mouse [14]; [43]): ≥ 2.7 mg/kg/day
- LEL (rat [15]; [44]): 6 mg/kg/day
- LOAEL (rat [15]; [44]): 6 mg/kg/day
- NEL (rat [15]; [44]): 2 mg/kg/day
- NOAEL (rat [15]; [44]): 2 mg/kg/day
- LEL (rat [15]; [45]): 6 mg/kg/day
- LOAEL (rat [15]; [45]): 6 mg/kg/day
- NEL (rat [15]; [45]): 2 mg/kg/day
- NOAEL (rat [15]; [45]): 2 mg/kg/day
- NEL (rat [16]; systemic / in life observation / body weight / body weight gain + systemic / pathology gross / kidney / enlarged): 0.75 mg/kg/day
- LEL (rat [16]; [46]): 3.75 mg/kg/day
- LOAEL (rat [16]; [46]): > 3.75 mg/kg/day
- NOAEL (rat [16]; [46]): ≥ 3.75 mg/kg/day
- NEL (dog [17]; [47]): 0.25 mg/kg/day
- NOAEL (dog [17]; [47]): 0.25 mg/kg/day
- LEL (dog [17]; [48]): 0.75 mg/kg/day
- LOAEL (dog [17]; [48]): 0.75 mg/kg/day
- LEL (rat [18]): 2.9 mg/kg/day
- LOAEL (rat [18]): 2.9 mg/kg/day
- NEL (rat [18]): 0.6 mg/kg/day
- NOAEL (rat [18]): 0.6 mg/kg/day
- LOAEL (mouse [19]; [42]): 2.6 mg/kg/day
- NOAEL (mouse [19]; systemic / in life observation / mortality / mortality + systemic / pathology gross / urinary bladder / thickened): 0.9 mg/kg/day
- LEL (mouse [19]; [49]): 0.3 mg/kg/day
- NEL (mouse [19]; [49]): < 0.3 mg/kg/day
- LEL (mouse [20]): 0.27 mg/kg/day
- LOAEL (mouse [20]): 0.27 mg/kg/day
- NEL (mouse [20]): < 0.27 mg/kg/day
- NOAEL (mouse [20]): < 0.27 mg/kg/day

SMILES: CCOc1nc(NC)nc(NC(=O)NS(=O)(=O)c2ccccc2C(=O)OC)n1 [Ethametsulfuron-methyl]
- LEL (rat [21]): 210 mg/kg/day
- LOAEL (rat [21]): > 210 mg/kg/day
- NEL (rat [21]): 21 mg/kg/day
- NOAEL (rat [21]): ≥ 210 mg/kg/day
- LEL (rat [22]; [50]): 4000 mg/kg/day
- LOAEL (rat [22]; [50]): 4000 mg/kg/day
- NEL (rat [22]; [50]): 1000 mg/kg/day
- NOAEL (rat [22]; [50]): 1000 mg/kg/day
- LEL (rat [22]; [51]): 4000 mg/kg/day
- LOAEL (rat [22]; [51]): 4000 mg/kg/day
- NEL (rat [22]; [51]): 1000 mg/kg/day
- NOAEL (rat [22]; [51]): 1000 mg/kg/day
- LEL (rabbit; [33]): 1000 mg/kg/day
- LOAEL (rabbit; [33]): 1000 mg/kg/day
- NEL (rabbit; [52]): 250 mg/kg/day
- NOAEL (rabbit; [52]): 250 mg/kg/day
- LEL (dog [23]): 478 mg/kg/day
- LOAEL (dog [23]): 478 mg/kg/day
- NEL (dog [23]): 87.3 mg/kg/day
- NOAEL (dog [23]): 87.3 mg/kg/day
